Reference: ChEMBL document CHEMBL1201862, “PubChem BioAssay data set” (2004)
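The compound was tested at five concentrations on cells cultured in 96-well plates, with a 48-hour exposure period. The concentration for 50% growth inhibition is given as GI50.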 Active and inactive are the calls of the source. Rule as the data show it: active = GI50 up to about 1.1 µM and inactive = higher.

Tests used:
Test in all cases: inhibition of tumour cell growth, NCI panel, 48 h
COLO 205 = system: COLO 205
CCRF-CEM = system: CCRF-CEM
NCI-H23 = system: NCI-H23
HCC 2998 = system: HCC 2998
UACC-62 = system: UACC-62
SK-MEL-5 = system: SK-MEL-5
HOP-62 = system: HOP-62
UACC-257 = system: UACC-257
OVCAR-8 = system: OVCAR-8
A549 = system: A549
MCF7 = system: MCF7
IGROV-1 = system: IGROV-1
MDA-MB-231 = system: MDA-MB-231
SF-295 = system: SF-295
U-251 = system: U-251
M14 = system: M14
RPMI-8226 = system: RPMI-8226
UO-31 = system: UO-31
SF-539 = system: SF-539
NCI/ADR-RES = system: NCI/ADR-RES
SF-268 = system: SF-268
SK-OV-3 = system: SK-OV-3
SK-MEL-2 = system: SK-MEL-2
K562 = system: K562
Hs-578T = system: Hs-578T
RXF 393 = system: RXF 393
T47D = system: T47D
786-0 = system: 786-0
SNB-19 = system: SNB-19
HCT-116 = system: HCT-116
Malme-3M = system: Malme-3M
NCI-H460 = system: NCI-H460
TK-10 = system: TK-10
HT-29 = system: HT-29
NCI-H522 = system: NCI-H522
OVCAR-4 = system: OVCAR-4
EKVX = system: EKVX
HCT-15 = system: HCT-15
SR = system: SR
HL-60 = system: HL-60
SK-MEL-28 = system: SK-MEL-28
CAKI-1 = system: CAKI-1
LOX IMVI = system: LOX IMVI
SN12C = system: SN12C
OVCAR-5 = system: OVCAR-5
HOP-92 = system: HOP-92
SW-620 = system: SW-620
A498 = system: A498
OVCAR-3 = system: OVCAR-3
MOLT-4 = system: MOLT-4
MDA-MB-435 = system: MDA-MB-435
BT-549 = system: BT-549
KM12 = system: KM12
MDA-N = system: MDA-N
DU-145 = system: DU-145
NCI-H226 = system: NCI-H226
ACHN = system: ACHN
PC-3 = system: PC-3

**Q.** Which GI50 (COLO 205) does the source give for `CN(CCCN=C=S)CCCN1c2ccccc2CCc2ccccc21` here?
**A.** 1660 nM (inactive)

**Q.** And the GI50 (CCRF-CEM)?
**A.** 1850 nM (inactive)

**Q.** What about the GI50 (NCI-H23) of the same molecule?
**A.** 1640 nM (inactive)

**Q.** What about the GI50 (HCC 2998) of the same molecule?
**A.** 1310 nM (inactive)

**Q.** And the GI50 (UACC-62)?
**A.** 1790 nM (inactive)

**Q.** And the GI50 (SK-MEL-5)?
**A.** 1780 nM (inactive)

**Q.** What about the GI50 (HOP-62) of the same molecule?
**A.** 1830 nM (inactive)

**Q.** What about the GI50 (UACC-257) of the same molecule?
**A.** 2030 nM (inactive)

**Q.** And the GI50 (OVCAR-8)?
**A.** 1780 nM (inactive)

**Q.** What about the GI50 (A549) of the same molecule?
**A.** 1710 nM (inactive)

**Q.** And the GI50 (MCF7)?
**A.** 1590 nM (inactive)

**Q.** And the GI50 (IGROV-1)?
**A.** 1790 nM (inactive)

**Q.** And the GI50 (MDA-MB-231)?
**A.** 1800 nM (inactive)

**Q.** What about the GI50 (SF-295) of the same molecule?
**A.** 1710 nM (inactive)

**Q.** What about the GI50 (U-251) of the same molecule?
**A.** 1810 nM (inactive)

**Q.** And the GI50 (M14)?
**A.** 1710 nM (inactive)

**Q.** And the GI50 (RPMI-8226)?
**A.** 1870 nM (inactive)

**Q.** And the GI50 (UO-31)?
**A.** 1620 nM (inactive)

**Q.** What about the GI50 (SF-539) of the same molecule?
**A.** 1760 nM (inactive)

**Q.** And the GI50 (NCI/ADR-RES)?
**A.** 1290 nM (inactive)

**Q.** And the GI50 (SF-268)?
**A.** 1710 nM (inactive)

**Q.** And the GI50 (SK-OV-3)?
**A.** 1630 nM (inactive)

**Q.** And the GI50 (SK-MEL-2)?
**A.** 1860 nM (inactive)

**Q.** And the GI50 (K562)?
**A.** 450 nM (active)

**Q.** What about the GI50 (Hs-578T) of the same molecule?
**A.** 2040 nM (inactive)

**Q.** And the GI50 (RXF 393)?
**A.** 1920 nM (inactive)

**Q.** And the GI50 (T47D)?
**A.** 2070 nM (inactive)

**Q.** What about the GI50 (786-0) of the same molecule?
**A.** 1640 nM (inactive)

**Q.** And the GI50 (SNB-19)?
**A.** 1720 nM (inactive)

**Q.** What about the GI50 (HCT-116) of the same molecule?
**A.** 1710 nM (inactive)

**Q.** What about the GI50 (Malme-3M) of the same molecule?
**A.** 1990 nM (inactive)

**Q.** And the GI50 (NCI-H460)?
**A.** 1820 nM (inactive)

**Q.** What about the GI50 (TK-10) of the same molecule?
**A.** 1820 nM (inactive)

**Q.** And the GI50 (HT-29)?
**A.** 1510 nM (inactive)

**Q.** And the GI50 (NCI-H522)?
**A.** 1950 nM (inactive)

**Q.** What about the GI50 (OVCAR-4) of the same molecule?
**A.** 1850 nM (inactive)

**Q.** What about the GI50 (EKVX) of the same molecule?
**A.** 1880 nM (inactive)

**Q.** And the GI50 (HCT-15)?
**A.** 1490 nM

**Q.** What about the GI50 (SR) of the same molecule?
**A.** 456 nM (active)

**Q.** What about the GI50 (HL-60) of the same molecule?
**A.** 1940 nM (inactive)

**Q.** And the GI50 (SK-MEL-28)?
**A.** 2060 nM (inactive)

**Q.** What about the GI50 (CAKI-1) of the same molecule?
**A.** 1730 nM (inactive)

**Q.** And the GI50 (LOX IMVI)?
**A.** 1880 nM (inactive)

**Q.** What about the GI50 (SN12C) of the same molecule?
**A.** 1690 nM (inactive)

**Q.** What about the GI50 (OVCAR-5) of the same molecule?
**A.** 1810 nM (inactive)

**Q.** And the GI50 (HOP-92)?
**A.** 2070 nM (inactive)

**Q.** And the GI50 (SW-620)?
**A.** 2230 nM (inactive)

**Q.** And the GI50 (A498)?
**A.** 1660 nM (inactive)

**Q.** And the GI50 (OVCAR-3)?
**A.** 1660 nM (inactive)

**Q.** And the GI50 (MOLT-4)?
**A.** 611 nM (active)

**Q.** And the GI50 (MDA-MB-435)?
**A.** 1790 nM (inactive)

**Q.** And the GI50 (BT-549)?
**A.** 2830 nM (inactive)

**Q.** And the GI50 (KM12)?
**A.** 1730 nM (inactive)

**Q.** What about the GI50 (MDA-N) of the same molecule?
**A.** 1710 nM (inactive)

**Q.** What about the GI50 (DU-145) of the same molecule?
**A.** 1830 nM (inactive)

**Q.** What about the GI50 (NCI-H226) of the same molecule?
**A.** 2040 nM (inactive)

**Q.** And the GI50 (ACHN)?
**A.** 1750 nM (inactive)

**Q.** What about the GI50 (PC-3) of the same molecule?
**A.** 1690 nM (inactive)
